In patent publication US9845319B2, “Amide substituted thiazoles as modulators of RORyt” (Janssen Pharmaceutica NV, priority 2014, dated 2017):

Legend:
[1] = molecular target: T1, human RORγt ligand binding domain (RORγt LBD) (Homo sapiens, UniProt P51449); assay: RORγt ThermoFluor assay; conditions: estimated from thermal shift concentration response
T1 construct: His-tag (N); TurboTEV protease cleavage site (ENLYFQG) (N); made in house; host or cells: E. coli (pHIS1, a modified pET expression vector)
T1 sequence (P51449 with tags, fused parts or gaps): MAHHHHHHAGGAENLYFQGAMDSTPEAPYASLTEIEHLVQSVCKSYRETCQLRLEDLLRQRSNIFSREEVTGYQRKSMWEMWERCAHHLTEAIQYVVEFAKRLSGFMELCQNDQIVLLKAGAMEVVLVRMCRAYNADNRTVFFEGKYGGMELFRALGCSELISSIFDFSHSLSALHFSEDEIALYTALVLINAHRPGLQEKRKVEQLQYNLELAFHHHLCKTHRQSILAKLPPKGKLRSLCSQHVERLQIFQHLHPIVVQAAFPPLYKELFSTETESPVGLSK
Experimental: This approach is applicable to a wide variety of systems, and rigorous in theoretical interpretation through quantitation of equilibrium binding constants (KD).
The shift in the melting point described as a ΔTm is proportional to the concentration and affinity of the ligand.
Protein and compound solutions are dispensed into black 384-well polypropylene PCR microplates (Abgene) and overlayed with silicone oil (1 μL, Fluka, type DC 200) to prevent evaporation.
Bar-coded assay plates are robotically loaded onto a thermostatically controlled PCR-type thermal block and then heated at a typical ramp-rate of 1° C./min for all experiments.
Fluorescence was measured by continuous illumination with UV light (Hamamatsu LC6) supplied via fiber optic and filtered through a band-pass filter (380-400 nm; >6 OD cutoff). Fluorescence emission of the entire 384-well plate was detected by measuring light intensity using a CCD camera (Sensys, Roper Scientific) filtered to detect 500±25 nm, resulting in simultaneous and independent readings of all 384 wells. Images were collected at each temperature, and the sum of the pixel intensity in a given area of the assay plate was recorded versus temperature. Reference wells contained RORγt without compounds, and the assay conditions were as follows: • 0.065 mg/mL RORγt • 60 μM 1,8-ANS • 100 mM Hepes, pH 7.0 • 10 mM NaCl • 2.5 mM GSH • 0.002% Tween-20
Project compounds were arranged in a pre-dosed mother plate (Greiner Bio-one) wherein compounds are serially diluted in 100% DMSO by 1:2 from a high concentration of 10 mM over 12 columns within a series (column 12 is a reference well containing DMSO, no compound). The compounds were robotically dispensed directly into assay plates (1×=46 nL) using a Hummingbird capillary liquid handling instrument (Digilab). Following compound dispense, protein and dye in buffer was added to achieve the final assay volume of 3 μL, followed by 1 μL of silicone oil.

[2] = molecular target: T2, full-length human RORγt (Homo sapiens, UniProt P51449); assay: RORγt (full-length human) Reporter Assay, Conditions A; assay type: cell-based; conditions: for IC50: HEK293T cells, GAL4-DBD-RORγt, luciferase, read-out: RORγt (FL) Reporter Assay A, IC50; for inhibition at 6 µM: read-out: RORγt (FL) Reporter Assay A, % inhibition @ 6 μM, 6 μM compound
T2 construct: expressed in transfected cells; host or cells: HEK293T, transiently transfected with pCMV-BD-ROR
T2 sequence (P51449 1-497 isoform P51449-2): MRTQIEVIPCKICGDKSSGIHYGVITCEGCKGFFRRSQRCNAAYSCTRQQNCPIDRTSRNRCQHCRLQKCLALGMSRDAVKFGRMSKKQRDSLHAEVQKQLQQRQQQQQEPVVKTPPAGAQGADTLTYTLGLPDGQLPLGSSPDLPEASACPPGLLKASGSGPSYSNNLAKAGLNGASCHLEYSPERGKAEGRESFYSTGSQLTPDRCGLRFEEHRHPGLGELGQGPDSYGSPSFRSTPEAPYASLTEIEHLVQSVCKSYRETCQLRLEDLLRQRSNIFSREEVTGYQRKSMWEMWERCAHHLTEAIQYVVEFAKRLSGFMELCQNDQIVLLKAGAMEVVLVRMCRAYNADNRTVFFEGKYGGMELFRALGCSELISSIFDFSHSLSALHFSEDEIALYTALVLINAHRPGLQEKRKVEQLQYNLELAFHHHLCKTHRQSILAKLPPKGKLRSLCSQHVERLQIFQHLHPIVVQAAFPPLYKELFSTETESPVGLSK
Experimental: After overnight (16 to 20 hours) incubation, media were removed and cells were lysed with 20 μL 1× Passive Lysis Buffer (Promega) for 10-15 minutes. Luminescence was measured using a BMG LUMIstar OPTIMA plate reader, after addition of 75 μL/well firefly luciferase buffer, followed by 75 μL/well Renilla luciferase buffer. To calculate the effect of compounds on RORγt activity, firefly values were normalized against values of DMSO only and values of reference compound at saturating concentration, then further normalized against Renilla signals. IC50s were generated by plotting final Renilla normalized data against compound concentration and percent inhibition was calculated against DMSO control.

Row | SMILES | Kd [1] | IC50 [2] | inhibition at 6 µM [2]
1 | C[C@H](NS(=O)(=O)c1ccc(-c2sc(-c3nnc(C(C)(C)O)o3)nc2C(=O)N2CCC(F)(F)C2)c(Cl)c1Cl)C(F)(F)F [Example 6/2, (S)-2,3-Dichloro-4-(4-(3,3-difluoropyrrolidine-1-carbonyl)-2-(5-(2-hydroxypropan-2-yl)-1,3,4-oxadiazol-2-yl)thiazol-5-yl)-N-(1,1,1-trifluoropropan-2-yl)benzenesulfonamide] | 7.6 nM | 38 nM | 108%
2 | CC[C@H](NS(=O)(=O)c1ccc(-c2sc(-c3nnc(C(C)(C)O)o3)nc2C(=O)N2CCC(F)(F)CC2)c(C(F)F)c1F)C(F)(F)F [Example 6/3, (S)-3-(Difluoromethyl)-4-(4-(4,4-difluoropiperidine-1-carbonyl)-2-(5-(2-hydroxypropan-2-yl)-1,3,4-oxadiazol-2-yl)thiazol-5-yl)-2-fluoro-N-(1,1,1-trifluorobutan-2-yl)benzenesulfonamide] | 1.7 nM | 27 nM | 110%
3 | C[C@H](NS(=O)(=O)c1ccc(-c2sc(-c3nnc(C(C)(C)O)o3)nc2C(=O)N2CC(F)(F)C[C@@H]2C)c(C(F)F)c1F)C(F)(F)F [Example 6/4, 4-(4-((S)-4,4-Difluoro-2-methylpyrrolidine-1-carbonyl)-2-(5-(2-hydroxypropan-2-yl)-1,3,4-oxadiazol-2-yl)thiazol-5-yl)-3-(difluoromethyl)-2-fluoro-N—((S)-1,1,1-trifluoropropan-2-yl)benzenesulfonamide] | 6.8 nM | 82 nM | 108%
4 | C[C@H](NS(=O)(=O)c1ccc(-c2sc(-c3nnc(C(C)(C)O)o3)nc2C(=O)N2CC(F)(F)C[C@@H]2C)c(Cl)c1Cl)C(F)(F)F [Example 6/5, 2,3-Dichloro-4-(4-((S)-4,4-difluoro-2-methylpyrrolidine-1-carbonyl)-2-(5-(2-hydroxypropan-2-yl)-1,3,4-oxadiazol-2-yl)thiazol-5-yl)-N—((S)-1,1,1-trifluoropropan-2-yl)benzenesulfonamide] | 0.6 nM | 23 nM | 103%
5 | CCCN(C)C(=O)c1nc(-c2nnc(C(C)(C)O)o2)sc1-c1ccc(S(=O)(=O)N[C@@H](C)C(F)(F)F)c(Cl)c1Cl [Example 6/6, (S)-5-(2,3-Dichloro-4-(N-(1,1,1-trifluoropropan-2-yl)sulfamoyl)phenyl)-2-(5-(2-hydroxypropan-2-yl)-1,3,4-oxadiazol-2-yl)-N-methyl-N-propylthiazole-4-carboxamide] | 16 nM | 72 nM | 110%
6 | CCN(C(=O)c1nc(-c2nnc(C(C)(C)O)o2)sc1-c1ccc(S(=O)(=O)N[C@@H](C)C(F)(F)F)c(Cl)c1Cl)C(C)C [Example 6/7, (S)-5-(2,3-Dichloro-4-(N-(1,1,1-trifluoropropan-2-yl)sulfamoyl)phenyl)-N-ethyl-2-(5-(2-hydroxypropan-2-yl)-1,3,4-oxadiazol-2-yl)-N-isopropylthiazole-4-carboxamide] | 1.7 nM | 38 nM | 113%

Next, values leading:

Row | Kd [1] | IC50 [2] | inhibition at 6 µM [2] | SMILES
7 | 4.5 nM | 30 nM | 108% | CCCN(CC)C(=O)c1nc(-c2nnc(C(C)(C)O)o2)sc1-c1ccc(S(=O)(=O)N[C@@H](C)C(F)(F)F)c(Cl)c1Cl [Example 6/8, (S)-5-(2,3-Dichloro-4-(N-(1,1,1-trifluoropropan-2-yl)sulfamoyl)phenyl)-N-ethyl-2-(5-(2-hydroxypropan-2-yl)-1,3,4-oxadiazol-2-yl)-N-propylthiazole-4-carboxamide]
8 | 45 nM | 210 nM | 101% | C[C@H](NC(=O)c1cc(-c2sc(-c3nnc(C(C)(C)O)o3)nc2C(=O)N2CCC(F)CC2)cc(C2(C)CC2)c1)C(F)(F)F [Example 6/10, (S)-3-(4-(4-Fluoropiperidine-1-carbonyl)-2-(5-(2-hydroxypropan-2-yl)-1,3,4-oxadiazol-2-yl)thiazol-5-yl)-5-(1-methylcyclopropyl)-N-(1,1,1-trifluoropropan-2-yl)benzamide]
9 | 9.3 nM | 69 nM | 104% | CC[C@H](NS(=O)(=O)c1ccc(-c2sc(-c3nnc(C(C)(C)O)o3)nc2C(=O)N2CCC(F)CC2)c(Cl)c1)C(F)(F)F [Example 6/11, (S)-3-Chloro-4-(4-(4-fluoropiperidine-1-carbonyl)-2-(5-(2-hydroxypropan-2-yl)-1,3,4-oxadiazol-2-yl)thiazol-5-yl)-N-(1,1,1-trifluorobutan-2-yl)benzenesulfonamide]
10 | 10 nM | 55 nM | 103% | CC[C@H](NS(=O)(=O)c1ccc(-c2sc(-c3nnc(C(C)(C)O)o3)nc2C(=O)N2CCC(F)(F)CC2)c(Cl)c1)C(F)(F)F [Example 6/12, (S)-3-Chloro-4-(4-(4,4-difluoropiperidine-1-carbonyl)-2-(5-(2-hydroxypropan-2-yl)-1,3,4-oxadiazol-2-yl)thiazol-5-yl)-N-(1,1,1-trifluorobutan-2-yl)benzenesulfonamide]
11 | 590 nM | 1100 nM | 90% | CC[C@H](NS(=O)(=O)c1ccc(-c2sc(-c3nnc(C(C)(C)O)o3)nc2C(=O)N2CC(F)(F)C2)c(Cl)c1)C(F)(F)F [Example 6/13, (S)-3-Chloro-4-(4-(3,3-difluoroazetidine-1-carbonyl)-2-(5-(2-hydroxypropan-2-yl)-1,3,4-oxadiazol-2-yl)thiazol-5-yl)-N-(1,1,1-trifluorobutan-2-yl)benzenesulfonamide]
12 | 3.3 nM | 73 nM | 105% | C[C@H](NS(=O)(=O)c1ccc(-c2sc(-c3nnc(C(C)(C)O)o3)nc2C(=O)N2CCC(F)(F)CC2)c(C(F)F)c1Cl)C(F)(F)F [Example 6/14, (S)-2-Chloro-3-(difluoromethyl)-4-(4-(4,4-difluoropiperidine-1-carbonyl)-2-(5-(2-hydroxypropan-2-yl)-1,3,4-oxadiazol-2-yl)thiazol-5-yl)-N-(1,1,1-trifluoropropan-2-yl)benzenesulfonamide]
13 | 0.89 nM | 33 nM | 107% | CC[C@H](NS(=O)(=O)c1ccc(-c2sc(-c3nnc(C(C)(C)O)o3)nc2C(=O)N2CCC(F)(F)CC2)c(Cl)c1F)C(F)(F)F [Example 6/15, (S)-3-Chloro-4-(4-(4,4-difluoropiperidine-1-carbonyl)-2-(5-(2-hydroxypropan-2-yl)-1,3,4-oxadiazol-2-yl)thiazol-5-yl)-2-fluoro-N-(1,1,1-trifluorobutan-2-yl)benzenesulfonamide]
14 | 0.47 nM | 38 nM | 104% | CC[C@H](NS(=O)(=O)c1ccc(-c2sc(-c3nnc(C(C)(C)O)o3)nc2C(=O)N2CCC(F)(F)CC2)c(F)c1C(F)F)C(F)(F)F [Example 6/16, (S)-2-(Difluoromethyl)-4-(4-(4,4-difluoropiperidine-1-carbonyl)-2-(5-(2-hydroxypropan-2-yl)-1,3,4-oxadiazol-2-yl)thiazol-5-yl)-3-fluoro-N-(1,1,1-trifluorobutan-2-yl)benzenesulfonamide]
